Patent publication US11911445B2, “Peptide YY pharmaceutical formulations, compositions, and methods” (Gila Therapeutics, Inc., priority 2018, dated 2024)
Like-named read-outs stand apart in the source and are kept apart here. No end group written: not given here.

Columns and labels:
[1] = tested on: subjects with BMIs of 30 to 40 kg/m^2; assay: Dose-escalation clinical trial, feeling of fullness assessed by VAS after lunch; assay type: in vivo, human
Description: An exemplary clinical trial was performed as a dose-escalation design trial. Approximately twelve evaluable subjects (n˜12) with BMIs of 30 to 40 kg/m^2 received a single dose of placebo followed by study drug (PYY(3-36) also known as GT-001) applied directly to the surface of the lingual mucosa with a disposable pipette followed by a one-day washout. A total of seven (7) doses was escalated to a dose of 2.5 mg/ml.
The dose can be prepared, for example, from a stock solution of 2.5 mg/ml PYY(3-36).
Subjects who complete all screening procedures and meet all inclusion and exclusion criteria described within the protocol and found to be eligible for study enrollment checked into the Study Unit (i.e., the study facility). The morning of the study, participants fasted prior to arriving at the SU. Participants fasted for at least 12 hours prior to Day 1 of the study. Participants were permitted to only drink water prior to arrival to SU and were able to brush their teeth. The following assessments and measurements were taken: • (1) Inspection of the lingual mucosa. • (2) Updating medical and medication history prior to placebo application. • (3) Assessing health status. If participant has either rhinitis or gastrointestinal distress, the participant will be discontinued for that day. • (4) Measuring body weight and BMI. • (5) Measuring vital signs (BP, HR, and body temperature). BP and HR were measured twice in the sitting position and twice in the standing position. If BP was high at baseline sitting (>160 systolic), BP was re-checked after participant was sitting for 5-10 min. Body temperature was measured once. • (6) Performing urine drug screen, urine cotinine test, alcohol breath test, and urine pregnancy test. • (7) Subjects provided a 325-400 calorie breakfast and calorie intake was recorded. • (8) Water was provided “ad-libitum” and volume recorded. • (9) Four (4) hours post breakfast, the VAS for Appetite and Satiety was performed. • (10) Inserting a cannula to obtain blood samples, obtaining a 5 ml blood sample, and screening for anti-GT-001 antibodies. • (11) Obtaining a fasting PK blood sample #1 (5 ml) 15 minutes prior to placebo. • (12) Performing a water mouthwash prior to dosing with GT-001. The mouthwash can be a rinse with 20 ml of water. • (13) Giving one milliliter (1 ml) of placebo (formulation without GT-001) to the participant to the tongue via pipette 5 minutes before lunch. • (14) The solution remained on the tongue for 1 minute followed by asking participants to swish and then swallow. • (15) Completing a VAS for like-lines (VAS completed by subjects). • (16) Collecting PK blood samples after each of seven doses at ±1 minute at 5, 10, 15, 30, and ±5 minutes at 60, 120, and 240 minutes post dose. • (17) Isolating subjects from other subjects during lunch. • (18) Provided a “ad-libitum” lunch (composed of a casserole, nutrient drink and two (2) cookies) and recording calorie intake. • (19) Having subjects complete VAS questionnaire for sweetness, sourness, bitterness, saltiness, umami, and fat taste 20 minutes after completing the meals. • (20) Recording VAS for appetite and satiety every 30 minutes for 2 hours after completing the meal. • (21) Discharging subjects. Subjects ate “at-libitum” until the 12-hour fasting period preceding the next study visit. • (22) During the SU visit, subjects were restricted from ingesting gum, candy, tobacco, carbonated drinks, and from performing exercise. During the meal, subjects were not exposed to food cues (visual, odor, or hearing) and they should eat in isolation.
Days 2, 4, 6, 8, 10, 12 and 14 treatment days are the same as day 1.
The following exemplary VAS Assessment was given to subjects to assess their feeling of fullness before and after receiving PYY(3-36) or placebo and before or after eating at various doses described herein. […]

[2] = tested on: mice; conditions: cited from earlier work; for effect on 1-hour food intake: augmentation of salivary peptide; for reduction of caloric intake as compared to controls / caloric intake: mice; for reduction of caloric intake as compared to controls: salivary augmentation; for caloric intake: vehicle 4.10±0.04 kcal
[3] = tested on: rodents; conditions: augmentation of salivary PYY(3-36); cited from earlier work
[4] = PYY concentration in plasma after lingual administration followed by lunch; assay type: in vivo, human; conditions: 0.25 mg/ml and 2.5 mg/ml, each followed by lunch; up to 4 hours after administration
Description: As shown, administering the placebo followed by food consumption induces the known and expected endogenous production of PYY resulting from food consumption peaking at approximately 20 pg/ml above pre-dose levels at 1-2 hours post-administration.
Subjects who complete all screening procedures and meet all inclusion and exclusion criteria described within the protocol and found to be eligible for study enrollment checked into the Study Unit (i.e., the study facility). The morning of the study, participants fasted prior to arriving at the SU. Participants fasted for at least 12 hours prior to Day 1 of the study. […] BP and HR were measured twice in the sitting position and twice in the standing position. […] Body temperature was measured once. • (6) Performing urine drug screen, urine cotinine test, alcohol breath test, and urine pregnancy test. • (7) Subjects provided a 325-400 calorie breakfast and calorie intake was recorded. • (8) Water was provided “ad-libitum” and volume recorded. • (9) Four (4) hours post breakfast, the VAS for Appetite and Satiety was performed. • (10) Inserting a cannula to obtain blood samples, obtaining a 5 ml blood sample, and screening for anti-GT-001 antibodies. • (11) Obtaining a fasting PK blood sample #1 (5 ml) 15 minutes prior to placebo. • (12) Performing a water mouthwash prior to dosing with GT-001. […]

Substance | feeling of fullness, VAS score (FIG. 1) ([1]; dose 25 ng applied to the tongue, 120 minutes post-lunch, 12 subjects, significantly above placebo level) | feeling of fullness, VAS score (FIG. 2) ([1]; dose 25 ng, up to 60 minutes post-lunch) | feeling of fullness, VAS score (FIG. 1) ([1]; dose 2.5 μg applied to the tongue, post-lunch, 12 subjects) | feeling of fullness, VAS score (FIG. 2) ([1]; dose 25 μg, maintained out to 120 minutes post-lunch) | feeling of fullness, VAS scale (FIG. 1) ([1]; dose 250 μg applied to the tongue, post-lunch, 12 subjects) | feeling of fullness, VAS score (FIG. 2) ([1]; dose 250 μg, maintained out to 120 minutes post-lunch) | effect on 1-hour food intake [2] | reduction of caloric intake as compared to controls ([2]; 0.3 μg/100 g) [%] | caloric intake ([2]; 0.3 μg/100 g, p=0.01) [kcal] | reduction of caloric intake as compared to controls ([2]; 3 μg/100 g) [%] | caloric intake ([2]; 3 μg/100 g, p=0.008) [kcal] | reduction of caloric intake as compared to controls ([2]; 10 μg/100 g) [%] | caloric intake ([2]; 10 μg/100 g, p=1.81E-06) [kcal] | taste aversion [3] | level of PYY in plasma versus placebo/meal combination (FIG. 3) [4]
PYY(3-36) | 7 | about 8 | increases | 8 | about 8 | 8 | decrease | 16 | 3.44 ± 0.06 | 26 | 3.01 ± 0.06 | 42 | 2.36 ± 0.05 | does not cause taste aversion | does not raise the level of PYY in plasma above levels induced by the placebo/meal combination
amylin (KCNTATCATQRLANFLVHSSNNFGAILSSTNVGSNTY; not fully specified (C-terminus, bridges); cysteine pairing not given here; UniProt P10997 34-70, looked up) [peptide tested by salivary augmentation for comparison, reference compound] |  |  |  |  |  |  | no effect |  |  |  |  |  |  |  | 
neuropeptide Y [reference compound] |  |  |  |  |  |  | no effect |  |  |  |  |  |  |  | 
